{"source": "patent US6780992B2", "about": "“Heterocyclic compounds, process for their preparation and pharmaceutical compositions containing them and their use in the treatment of diabetes and related diseases” (Dr. Reddy's Laboratories Ltd., priority 1996, dated 2004)", "tested_on": "C57BL/KsJ-db/db mice", "test": "blood sugar and triglycerides lowering in db/db mice, oral gavage daily for 6 days", "type": "in vivo", "details": "for inhibition in vivo at 30 mg/kg/day / inhibition in vivo at 10 mg/kg/day / inhibition in vivo at 100 mg/kg/day: Mus musculus, 144 h, 6 days treated; for inhibition in vivo at 30 mg/kg/day: dose 30 mg/kg/day oral gavage; for inhibition in vivo at 10 mg/kg/day: dose 10 mg/kg/day oral gavage; for inhibition in vivo at 100 mg/kg/day: dose 100 mg/kg/day oral gavage", "excerpt": "Mutation in colonies of laboratory animals and different sensitivities to dietary regimens have made the development of animal models with non-insulin dependent diabetes associated with obesity and insulin resistance possible. Genetic models such as db/db and ob/ob (See Diabetes, (1982) 31(1): 1-6) in mice and fa/fa and zucker rats have been developed by the various laboratories for understanding the pathophysiology of disease and testing the efficacy of new antidiabetic compounds (Diabetes, (1983) 32: 830-838; Annu. Rep. Sankyo Res. Lab. (1994) 46: 1-57). The homozygous animals, C57 BL/KsJ-db/db mice developed by Jackson Laboratory, US, are obese, hyperglycemic, hyperinsulinemic and insulin resistant (J. Clin. Invest., (1990) 85: 962-967), whereas heterozygous are lean and normoglycemic. In db/db model, mouse progressively develops insulinopenia with age, a feature commonly observed in late stages of human type II diabetes when blood sugar levels are insufficiently controlled. The state of pancreas and its course vary according to the models. Since this model resembles that of type II diabetes mellitus, the compounds of the present invention were tested for blood sugar and triglycerides lowering activities.\nMale C57BL/KsJ-db/db mice of 8 to 14 weeks age, having body weight range of 35 to 60 grams, procured from the Jackson Laboraotory, USA, were used in the experiment. The mice were provided with standard feed (National Institute of Nutrition, Hyderabad, India) and acidified water, ad libitum. The animals having more than 300 mg/dl blood sugar were used for testing. The number of animals in each group was 4.\nThe random blood sugar and triglyceride levels were measured by collecting blood (100 μl) through orbital sinus, using heparinised capillary in tubes containing EDTA which was centrifuged to obtain plasma. The plasma glucose and triglycerides levels were measured spectrometrically, by glucose oxidase and glycerol-3-PO4 oxidase/peroxidase enzyme (Dr. Reddy's Lab. Diagnostic Division Kits, Hyderabad, India) methods respectively. On 6th day the blood samples were collected one hour after administration of test compounds/vehicle for assessing the biological activity.\nTest compounds were suspended on 0.25% carboxymethyl cellulose and administered to test group at a dose of 10 mg to 100 mg/kg through oral gavage daily for 6 days. The control group received vehicle (dose 10 ml/kg).\nThe blood sugar and triglycerides lowering activities of the test compound was calculated according to the formula: [formula]", "key": {"[1]": {"details": "read-out: Maximum reduction in blood glucose level (%)"}, "[2]": {"details": "read-out: Triglyceride lowering (%)"}}, "note": "Counter-ions that a name gives are not always drawn. Like-named read-outs stand apart in the source and are kept apart here."}
{"smiles": "Cc1nc2ccccc2c(=O)n1CCOc1ccc(/C=C2\\SC(=O)NC2=O)cc1", "note": "[Example 9, 5-[4-[2-[2-Methyl-4-oxo-3,4-dihydro-3-quinazolinyl]ethoxy]phenylmethylene]thiazolidine-2,4-dione]", "values": [{"measurement": "inhibition in vivo at 30 mg/kg/day", "setting": "[1]", "result": 46, "unit": "%"}, {"measurement": "inhibition in vivo at 30 mg/kg/day", "setting": "[2]", "result": 35, "unit": "%"}]}
{"smiles": "Cn1c(COc2ccc(CC3SC(=O)NC3=O)cc2)nc2ccccc2c1=O", "note": "(stereo not drawn) [Example 28, 5-[4-[[3-Methyl-4oxo-3,4-dihydro-2-quinazolinyl]methoxy]phenylmethyl]thiazolidine-2,4-dione sodium salt]", "values": [{"measurement": "inhibition in vivo at 10 mg/kg/day", "setting": "[1]", "result": 63, "unit": "%"}, {"measurement": "inhibition in vivo at 10 mg/kg/day", "setting": "[2]", "result": 57, "unit": "%"}]}
{"smiles": "Cc1nc2ncccc2c(=O)n1CCOc1ccc(/C=C2\\SC(=O)NC2=O)cc1", "note": "[Example 11, 5-[4-[2-[8-Aza-2-methyl-4-oxo-3,4-dihydro-3-quinazolinyl]ethoxy]phenylmethylene]thiazolidine-2,4-dione]", "values": [{"measurement": "inhibition in vivo at 30 mg/kg/day", "setting": "[1]", "result": 32, "unit": "%"}, {"measurement": "inhibition in vivo at 30 mg/kg/day", "setting": "[2]", "result": 42, "unit": "%"}]}
{"smiles": "Cn1c(COc2ccc(/C=C3\\SC(=O)NC3=O)cc2)nc2ccccc2c1=O", "note": "[Example 12, 5-[4-[[3-Methyl-4-oxo-3,4-dihydro-2-quinazolinyl]methoxy]phenylmethylene]thiazolidine-2,4-dione]", "values": [{"measurement": "inhibition in vivo at 100 mg/kg/day", "setting": "[1]", "result": 71, "unit": "%"}, {"measurement": "inhibition in vivo at 100 mg/kg/day", "setting": "[2]", "result": 57, "unit": "%"}]}
{"smiles": "CCc1c(C)nc(CC)n(CCOc2ccc(/C=C3\\SC(=O)NC3=O)cc2)c1=O", "note": "[Example 6, 5-[4-[2-[2,Diethyl-4-methyl-6-oxo-1,6-dihydro-1-pyrimidinyl]ethoxy]phenylmethylene]thiazolidine-2,4-dione]", "values": [{"measurement": "inhibition in vivo at 100 mg/kg/day", "setting": "[1]", "result": 41, "unit": "%"}, {"measurement": "inhibition in vivo at 100 mg/kg/day", "setting": "[2]", "result": 31, "unit": "%"}]}
{"smiles": "Cc1c(C)c2c(c(C)c1O)CCC(C)(COc1ccc(CC3SC(=O)NC3=O)cc1)O2", "note": "(stereo not drawn) [Troglitazone, reference compound]", "values": [{"measurement": "reduction in random blood sugar level", "setting": "100 mg/kg daily dose, on 6th day", "result": 28, "unit": "%"}]}
{"smiles": "CCc1nc2ccccc2c(=O)n1CCOc1ccc(CC2SC(=O)NC2=O)cc1", "note": "(stereo not drawn) [Example 24, 5-[4-[2-[2-Ethyl-4-oxo-3,4-dihydro-3-quinazolinyl]ethoxy]phenylmethyl]thiazolidine-2,4-dione]", "values": [{"measurement": "inhibition in vivo at 10 mg/kg/day", "setting": "[1]", "result": 63, "unit": "%"}, {"measurement": "inhibition in vivo at 10 mg/kg/day", "setting": "[2]", "result": 17, "unit": "%"}]}
{"smiles": "CCc1nc(C)cc(=O)n1CCOc1ccc(CC2SC(=O)NC2=O)cc1", "note": "(stereo not drawn) [Example 19, 5-[4-[2-[2-Ethyl-4-methyl-6-oxo-1,6-dihydro-1-pyrimidinyl]ethoxy]phenylmethyl]thiazolidine-2,4-dione]", "values": [{"measurement": "inhibition in vivo at 30 mg/kg/day", "setting": "[1]", "result": 73, "unit": "%"}, {"measurement": "inhibition in vivo at 30 mg/kg/day", "setting": "[2]", "result": 70, "unit": "%"}]}
{"smiles": "CCc1nc(C)cc(=O)n1CCOc1ccc(/C=C2\\SC(=O)NC2=O)cc1", "note": "[Example 3, 5-[4-[2-[2-Ethyl-4-methyl-6-oxo-1,6-dihydro-1-pyrimidinyl]ethoxy]phenylmethylene]thiazolidine-2,4-dione]", "values": [{"measurement": "inhibition in vivo at 100 mg/kg/day", "setting": "[1]", "result": 67, "unit": "%"}, {"measurement": "inhibition in vivo at 100 mg/kg/day", "setting": "[2]", "result": 12, "unit": "%"}]}
{"smiles": "CCn1c(COc2ccc(/C=C3\\SC(=O)NC3=O)cc2)nc2ccccc2c1=O", "note": "[Example 13, 5-[4-[[3-Ethyl-4-oxo-3,4-dihydro-2-quinazolinyl]methoxy]phenylmethylene]thiazolidine-2,4-dione]", "values": [{"measurement": "inhibition in vivo at 100 mg/kg/day", "setting": "[1]", "result": 52, "unit": "%"}, {"measurement": "inhibition in vivo at 100 mg/kg/day", "setting": "[2]", "result": 57, "unit": "%"}]}
{"smiles": "Cn1c(COc2ccc(CC3SC(=O)NC3=O)cc2)nc2ccccc2c1=O", "note": "(stereo not drawn) [Example 22, 5-[4-[[3-Methyl-4-oxo-3,4-dihydro-2-quinazolinyl]methoxy]phenylmethyl]thiazolidine-2,4-dione]", "values": [{"measurement": "inhibition in vivo at 30 mg/kg/day", "setting": "[1]", "result": 55, "unit": "%"}, {"measurement": "inhibition in vivo at 30 mg/kg/day", "setting": "[2]", "result": 41, "unit": "%"}]}
{"smiles": "CCc1nc(-c2ccccc2)cc(=O)n1CCOc1ccc(/C=C2\\SC(=O)NC2=O)cc1", "note": "[Example 7, 5-[4-[2-[2-Ethyl-4phenyl-6-oxo-1,6-dihydro-1-pyrimidinyl]ethoxy]phenylmethylene]thiazolidine-2,4-dione]", "values": [{"measurement": "inhibition in vivo at 100 mg/kg/day", "setting": "[1]", "result": 66, "unit": "%"}, {"measurement": "inhibition in vivo at 100 mg/kg/day", "setting": "[2]", "result": 35, "unit": "%"}]}
{"smiles": "CCCc1nc(C)cc(=O)n1CCOc1ccc(CC2SC(=O)NC2=O)cc1", "note": "(stereo not drawn) [Example 17, 5-[4-[2-[4-methyl-2-Propyl-6-oxo-1,6-dihydro-1-pyrimidinyl]ethoxy]phenylmethyl]thiazolidine-2,4-dione]", "values": [{"measurement": "inhibition in vivo at 30 mg/kg/day", "setting": "[1]", "result": 65, "unit": "%"}, {"measurement": "inhibition in vivo at 30 mg/kg/day", "setting": "[2]", "result": 45, "unit": "%"}]}
{"smiles": "CCc1nc(-c2ccccc2)cc(=O)n1CCOc1ccc(CC2SC(=O)NC2=O)cc1", "note": "(stereo not drawn) [Example 21, 5-[4-[2-[2-Ethyl-4phenyl-6-oxo-1,6-dihydro-1-pyrimidinyl]ethoxy]phenylmethyl]thiazolidine-2,4-dione]", "values": [{"measurement": "inhibition in vivo at 30 mg/kg/day", "setting": "[1]", "result": 64, "unit": "%"}, {"measurement": "inhibition in vivo at 30 mg/kg/day", "setting": "[2]", "result": 76, "unit": "%"}]}
